In patent US20260285857A1, “BICYCLIC AND HETEROCYCLIC AMIDE COMPOUNDS” (priority 2024, published 2026):

Test system: immunoglobulin light chain protein WIL-FL T46L
Assay: Differential scanning fluorimetry (thermal shift) assay
Format: binding
Conditions: Table A; temperature shift [Tm]compound-[Tm]vehicle; recombinant WIL-FL T46L

| Structure (SMILES) | DSF |
| --- | --- |
| Cc1cc(N2CC[C@](c3ccccc3)(C(F)F)C2)cn2nc(C(=O)NC3CCN(c4ccnc(C(=O)O)c4)CC3)nc12 [Compound 330] | **** (>1.5-2.5° C.=****) |
| Cc1cc(N2CC[C@@](CO)(c3ccccc3)C2)cn2nc(C(=O)N3CC[C@@]4(CCN(c5cccc(C(=O)O)n5)C4)C3)nc12 [Compound 331] | ** (>0.5-1 °C =**) |
| Cc1cc(N2CC[C@](CO)(c3ccccc3)C2)cn2nc(C(=O)N3CC[C@@]4(CCN(c5cccc(C(=O)O)n5)C4)C3)nc12 [Compound 332] | ***** (>2.5° C.=*****) |
| CNC(=O)c1nn2cc(N3CC[C@](C)(c4ccccc4)C3)cc(C)c2c1COC [Compound 333] | ***** (>2.5° C.=*****) |
| C[C@]1(c2ccccc2)CCN(c2cc(CO)c3nc(C(=O)N4CCC5(CCN(c6ccnc(C(=O)O)c6)C5)C4)nn3c2)C1 (stereo partly shown) [Compound 334] | ***** (>2.5° C.=*****) |
| CNC(=O)c1nc2c(CN)cc(N3CC[C@](C)(c4ccccc4)C3)cn2n1 [Compound 335] | ***** (>2.5° C.=*****) |
| CNC(=O)c1nc2c(C(C)O)cc(N3CC[C@](C)(c4ccccc4)C3)cn2n1 (stereo partly shown) [Compound 336] | ***** (>2.5° C.=*****) |
| CNC(=O)c1nc2c(C(C)C)cc(N3CC[C@](C)(c4ccccc4)C3)cn2n1 [Compound 337] | **** (>1.5-2.5° C.=****) |
| CNC(=O)c1nc2c(C#N)cc(N3CC[C@](C)(c4ccccc4)C3)cn2n1 [Compound 338] | * (0-0.5° C.=*) |
| CCc1cc(N2CC[C@](C)(c3ccccc3)C2)cn2nc(C(=O)NC)nc12 [Compound 339] | ***** (>2.5° C.=*****) |
| CC(C)(O)c1cc(N2CC[C@](C)(c3ccccc3)C2)cn2nc(C(=O)NC3CCN(c4cccc(C(=O)O)n4)CC3)nc12 [Compound 340] | ***** (>2.5° C.=*****) |
| CC(O)c1cc(N2CC[C@](C)(c3ccccc3)C2)cn2nc(C(=O)NC3CC4(C3)CC(N3CC5C(C3)C5C(=O)O)C4)nc12 (stereo partly shown) [Compound 341] | ***** (>2.5° C.=*****) |
| CC(O)c1cc(N2CC[C@](C)(c3ccccc3)C2)cn2nc(C(=O)NC3CCN(c4cccc(C(=O)O)n4)CC3)nc12 (stereo partly shown) [Compound 342] | ***** (>2.5° C.=*****) |
| C[C@]1(c2ccccc2)CCN(c2cc(CO)c3nc(C(=O)N4CCC5(CCN(c6cccc(C(=O)O)n6)C5)C4)nn3c2)C1 (stereo partly shown) [Compound 343] | ***** (>2.5° C.=*****) |
| Cc1nc(C2C3COC2(c2nc4c(CO)cc(N5CC[C@](C)(c6ccccc6)C5)cn4n2)C3)n[nH]1 (stereo partly shown) [Compound 344] | ***** (>2.5° C.=*****) |
| C[C@]1(c2ccccc2)CCN(c2cc(CN)c3nc(C(=O)N4CC[C@@]5(CCN(c6cccc(C(=O)O)n6)C5)C4)nn3c2)C1 [Compound 345] | ***** (>2.5° C.=*****) |
| C[C@]1(c2ccccc2)CCN(c2cc(CO)c3nc(C(=O)NC4CC5(CCC5N5CC6C(C5)C6C(=O)O)C4)nn3c2)C1 (stereo partly shown) [Compound 346] | ***** (>2.5° C.=*****) |
| C[C@@]1(c2ccccc2)CCN(c2cc(CO)c3nc(C(=O)N4CC5CN(c6cccc(C(=O)O)n6)CC5C4)nn3c2)C1 (stereo partly shown) [Compound 347] | ***** (>2.5° C.=*****) |
| CNC(=O)c1nc2c(CNC(C)=O)cc(N3CC[C@](C)(c4ccccc4)C3)cn2n1 [Compound 348] | ***** (>2.5° C.=*****) |
| CCS(=O)(=O)NCc1cc(N2CC[C@](C)(c3ccccc3)C2)cn2nc(C(=O)NC)nc12 [Compound 349] | ***** (>2.5° C.=*****) |

| Structure (SMILES) | DSF |
| --- | --- |
| CC(C)(O)CNC(=O)c1nc2c(CO)cc(N3CC[C@](C)(c4ccccc4)C3)cn2n1 [Compound 350] | ***** (>2.5° C.=*****) |
| CNC(=O)c1nc2c(CO)cc(N3CC[C@](C)(c4ccccc4)C3)cn2n1 [Compound 351] | ***** (>2.5° C.=*****) |
| C[C@]1(c2ccccc2)CCN(c2cc(CO)c3nc(C(=O)N[C@@H]4CCOC4)nn3c2)C1 [Compound 352] | ***** (>2.5° C.=*****) |
| Cc1cc(N2CC[C@](C)(c3ccccc3)C2)cn2nc(C(=O)N3CCC4(CC3)COCC4N3CC4C(C3)C4C(=O)O)nc12 (stereo partly shown) [Compound 353] | ***** (>2.5° C.=*****) |
| Cc1cc(N2CC[C@](C)(c3ccccc3)C2)cn2nc(C(=O)NC3CC(N4CC5C(C4)C5C(=O)O)C3)nc12 (stereo partly shown) [Compound 354] | ***** (>2.5° C.=*****) |
| Cc1cc(N2CC[C@](C)(c3ccccc3)C2)cn2nc(C(=O)N3CCCC4(CC(N5CC6C(C5)C6C(=O)O)CO4)C3)nc12 (stereo partly shown) [Compound 355] | ***** (>2.5° C.=*****) |
| Cc1cc(N2CC[C@](C)(c3ccccc3)C2)cn2nc(C(=O)NC3CC4(C3)CC(N3CC5C(CC(=O)O)C5C3)C4)nc12 (stereo partly shown) [Compound 356] | ***** (>2.5° C.=*****) |
| COC(=O)CC1C2CN(C3CC4(CC(NC(=O)c5nc6c(C)cc(N7CC[C@](C)(c8ccccc8)C7)cn6n5)C4)C3)CC12 (stereo partly shown) [Compound 357] | ***** (>2.5° C.=*****) |
| Cc1cc(N2CC[C@](C)(c3ccccc3)C2)cn2nc(C(=O)NC3CC4(C3)CC(N3CCOC(C(=O)O)C3)C4)nc12 (stereo partly shown) [Compound 358] | ***** (>2.5° C.=*****) |
| Cc1cc(N2CC[C@](C)(c3ccccc3)C2)cn2nc(C(=O)NC3CC4(C3)OCC4N3CCC(C(=O)O)CC3)nc12 (stereo partly shown) [Compound 359] | ***** (>2.5° C.=*****) |
| COC(=O)C1CCN(C2COC23CC(NC(=O)c2nc4c(C)cc(N5CC[C@](C)(c6ccccc6)C5)cn4n2)C3)CC1 (stereo partly shown) [Compound 360] | ***** (>2.5° C.=*****) |
| Cc1cc(N2CC[C@](C)(c3ccccc3)C2)cn2nc(C(=O)NC3CC(N4C[C@@H](O)[C@@H](O)C4)C3)nc12 (stereo partly shown) [Compound 361] | ***** (>2.5° C.=*****) |
| Cc1cc(N2CC[C@](C)(c3ccccc3)C2)cn2nc(C(=O)NC3CC(N4C[C@H](O)[C@@H](O)C4)C3)nc12 (stereo partly shown) [Compound 362] | ***** (>2.5° C.=*****) |
| Cc1cc(N2CC[C@](C)(c3ccccc3)C2)cn2nc(C(=O)NC3CC4(C3)CC(N3C[C@H](F)[C@@H](F)C3)C4)nc12 (stereo partly shown) [Compound 363] | ***** (>2.5° C.=*****) |
| Cc1cc(N2CC[C@](C)(c3ccccc3)C2)cn2nc(C(=O)NC3CC4(C3)CC(N3CC5C(C3)C5C(=O)O)C4)nc12 (stereo partly shown) [Compound 364] | ***** (>2.5° C.=*****) |
| Cc1cc(N2CC[C@](C)(c3ccccc3)C2)cn2nc(C(=O)NC3CCC(N4CC5C(C4)C5C(=O)O)C3)nc12 (stereo partly shown) [Compound 365] | ***** (>2.5° C.=*****) |
| Cc1cc(N2CC[C@](C)(c3ccccc3)C2)cn2nc(C(=O)N3CCC(N4CC5C(C4)C5C(=O)O)CC3)nc12 (stereo partly shown) [Compound 366] | ***** (>2.5° C.=*****) |
| Cc1cc(N2CC[C@](C)(c3ccccc3)C2)cn2nc(C(=O)NC3CC4(C3)CC(N3CC5C(C3)C5C(N)=O)C4)nc12 (stereo partly shown) [Compound 367] | ***** (>2.5° C.=*****) |
| Cc1cc(N2CC[C@](C)(c3ccccc3)C2)cn2nc(C(=O)NC3CC4(C3)CC(N3CC5C(C3)C5c3nn[nH]n3)C4)nc12 (stereo partly shown) [Compound 368] | ***** (>2.5° C.=*****) |
| Cc1cc(N2CC[C@](C)(c3ccccc3)C2)cn2nc(C(=O)NC3CC4(C3)CC(N3C[C@@H](O)[C@@H](O)C3)C4)nc12 (stereo partly shown) [Compound 369] | ***** (>2.5° C.=*****) |

| Structure (SMILES) | DSF |
| --- | --- |
| Cc1cc(N2CC[C@](C)(c3ccccc3)C2)cn2nc(C(=O)N3CCC4(CC3)CC(N3CC5C(C3)C5C(=O)O)CO4)nc12 (stereo partly shown) [Compound 370] | ***** (>2.5° C.=*****) |
| Cc1cc(N2CC[C@](C)(c3ccccc3)C2)cn2nc(C(=O)NC3CC4(C3)CN(C3CC(C)(C(=O)O)C3)C4)nc12 (stereo partly shown) [Compound 371] | ***** (>2.5° C.=*****) |
| COC(=O)C1C2CN(C3CCC34CC(NC(=O)c3nc5c(C)cc(N6CC[C@](C)(c7ccccc7)C6)cn5n3)C4)CC21 (stereo partly shown) [Compound 372] | ***** (>2.5° C.=*****) |
| COC(=O)C1CCN(C2CCC23CC(NC(=O)c2nc4c(C)cc(N5CC[C@](C)(c6ccccc6)C5)cn4n2)C3)CC1 (stereo partly shown) [Compound 373] | ***** (>2.5° C.=*****) |
| Cc1cc(N2CC[C@](C)(c3ccccc3)C2)cn2nc(C(=O)NC3CC4(CCC4N4CCC(C(=O)O)CC4)C3)nc12 (stereo partly shown) [Compound 374] | ***** (>2.5° C.=*****) |
| Cc1cc(N2CC[C@](C)(c3ccccc3)C2)cn2nc(C(=O)N3CCC4(C3)OCC4N3CC4C(C3)C4C(=O)O)nc12 (stereo partly shown) [Compound 375] | ***** (>2.5° C.=*****) |
| Cc1cc(N2CC[C@](C)(c3ccccc3)C2)cn2nc(C(=O)N3CC[C@@]4(CCN(C5CCC(C(=O)O)CC5)C4)C3)nc12 (stereo partly shown) [Compound 376] | ***** (>2.5° C.=*****) |
| Cc1cc(N2CC[C@](C)(c3ccccc3)C2)cn2nc(C(=O)N3CCC4(CCN(C5CCC(C(=O)O)CC5)C4)C3)nc12 (stereo partly shown) [Compound 377] | ***** (>2.5° C.=*****) |
| CCOC(=O)C1C2CN(C3CC4(CC(NC(=O)c5nc6c(C)cc(N7CC[C@](C)(c8ccccc8)C7)cn6n5)C4)C3)CC21 (stereo partly shown) [Compound 378] | ***** (>2.5° C.=*****) |
| Cc1cc(N2CC[C@](C)(c3ccccc3)C2)cn2nc(C(=O)NC3CC4(C3)CC(N3CC5C(C3)C5C(=O)O)C4)nc12 (stereo partly shown) [Compound 379] | ***** (>2.5° C.=*****) |
| Cc1cc(N2CC[C@](C)(c3ccccc3)C2)cn2nc(C(=O)NC3CC4(C3)CC(N3CCCC(C(=O)O)C3)C4)nc12 (stereo partly shown) [Compound 380] | ***** (>2.5° C.=*****) |
| Cc1cc(N2CC[C@](C)(c3ccccc3)C2)cn2nc(C34CC(O)(CO3)C4)nc12 [Compound 381] | ***** (>2.5° C.=*****) |
| Cc1cc(N2CC[C@@](C)(c3cccc(F)c3)C2)cn2nc(C(=O)NCC(C)(C)O)nc12 [Compound 382] | ***** (>2.5° C.=*****) |
| Cc1cc(N2CCC(C)(c3cccc(F)c3)C2)cn2nc(C(=O)NC3CCOC3)nc12 (stereo not shown) [Compound 383] | ***** (>2.5° C.=*****) |
| Cc1cc(N2CC[C@](C)(c3cccc(F)c3)C2)cn2nc(C(=O)NC3CC4(C3)CC(N3CC5C(C3)C5C(=O)O)C4)nc12 (stereo partly shown) [Compound 384] | ***** (>2.5° C.=*****) |
| Cc1cc(N2CC[C@](C)(c3cccc(F)c3)C2)cn2nc(C(=O)N3CCC(C)(O)C3)nc12 (stereo partly shown) [Compound 385] | ***** (>2.5° C.=*****) |
| Cc1cc(N2CCC(C)(c3ccccc3)C2=O)cn2nc(C(=O)N3CC[C@@]4(CCN(c5cccc(C(=O)O)n5)C4)C3)nc12 (stereo partly shown) [Compound 386] | ** (>0.5-1 °C =**) |
| Cc1cc(N2CC(C)(c3ccccc3)CC2=O)cn2nc(C(=O)N3CC[C@@]4(CCN(c5cccc(C(=O)O)n5)C4)C3)nc12 (stereo partly shown) [Compound 387] | ** (>0.5-1 °C =**) |
